Reference: PubChem BioAssay (NCI)
Converted amounts (≈) assume the structure as drawn.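 Each compound was tested at five concentrations against cells in 96-well plates for 48 hours. Here, GI50 denotes the concentration required for 50% inhibition of growth. TGI is the concentration that stops growth completely.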 Where a SMILES comes first, the peptide text is derived from it. The star is where a group is joined. Boc = CC(C)(C)OC(=O)*; OcHex = C1CCC(O*)CC1

Experiments:
Assay in all cases: inhibition of tumour cell growth, NCI panel, 48 h
HOP-92 NSCLC = tested on: HOP-92 NSCLC
SNB-75 CNS = tested on: SNB-75 CNS
K-562 leukemia = tested on: K-562 leukemia
NCI-H522 lung = tested on: NCI-H522 lung
UACC-257 melanoma = tested on: UACC-257 melanoma
SK-MEL-28 melanoma = tested on: SK-MEL-28 melanoma
M14 melanoma = tested on: M14 melanoma
UO-31 renal = tested on: UO-31 renal
UACC-62 melanoma = tested on: UACC-62 melanoma
SK-OV-3 ovarian = tested on: SK-OV-3 ovarian
MALME-3M melanoma = tested on: MALME-3M melanoma
BT-549 breast = tested on: BT-549 breast
MOLT-4 leukemia = tested on: MOLT-4 leukemia
HL-60(TB) leukemia = tested on: HL-60(TB) leukemia
RPMI-8226 leukemia = tested on: RPMI-8226 leukemia
HCC-2998 colon = tested on: HCC-2998 colon
SF-539 CNS = tested on: SF-539 CNS
MCF7 breast = tested on: MCF7 breast
SK-MEL-2 melanoma = tested on: SK-MEL-2 melanoma
U251 CNS = tested on: U251 CNS
LOX IMVI melanoma = tested on: LOX IMVI melanoma
OVCAR-3 ovarian = tested on: OVCAR-3 ovarian
MDA-MB-435 = tested on: MDA-MB-435
COLO 205 colon = tested on: COLO 205 colon
SF-295 CNS = tested on: SF-295 CNS
EKVX NSCLC = tested on: EKVX NSCLC
MDA-MB-231 breast = tested on: MDA-MB-231 breast
IGROV1 ovarian = tested on: IGROV1 ovarian
A498 renal = tested on: A498 renal
PC-3 prostate = tested on: PC-3 prostate
A549 NSCLC = tested on: A549 NSCLC
SN12C renal = tested on: SN12C renal
ACHN renal = tested on: ACHN renal
NCI-H460 lung = tested on: NCI-H460 lung
HS 578T breast = tested on: HS 578T breast
DU-145 prostate = tested on: DU-145 prostate
SNB-19 CNS = tested on: SNB-19 CNS
CAKI-1 renal = tested on: CAKI-1 renal
786-0 renal = tested on: 786-0 renal
NCI/ADR-RES ovarian = tested on: NCI/ADR-RES ovarian
HT29 colon = tested on: HT29 colon
TK-10 renal = tested on: TK-10 renal
T-47D breast = tested on: T-47D breast
SW-620 colon = tested on: SW-620 colon
KM12 colon = tested on: KM12 colon
SF-268 CNS = tested on: SF-268 CNS
SK-MEL-5 melanoma = tested on: SK-MEL-5 melanoma
HCT-15 colon = tested on: HCT-15 colon
RXF 393 renal = tested on: RXF 393 renal
OVCAR-8 ovarian = tested on: OVCAR-8 ovarian
HCT-116 colon = tested on: HCT-116 colon
OVCAR-5 ovarian = tested on: OVCAR-5 ovarian
OVCAR-4 ovarian = tested on: OVCAR-4 ovarian
HOP-62 NSCLC = tested on: HOP-62 NSCLC

CC(C)CC(NC(=O)OC(C)(C)C)C(=O)NC(CCC(=O)OC1CCCCC1)C(N)=O (stereo not drawn) (Boc-Leu-Glu(OcHex)-NH2; configuration not given here)
GI50 (HOP-92 NSCLC): 12.5 µg/mL (≈ 28.4 µM) | TGI (HOP-92 NSCLC): 36.7 µg/mL (≈ 83 µM) | GI50 (SNB-75 CNS): 71.5 µg/mL | GI50 (K-562 leukemia): 51.9 µg/mL | GI50 (NCI-H522 lung): 12.2 µg/mL | TGI (NCI-H522 lung): 45.9 µg/mL | GI50 (UACC-257 melanoma): 51.2 µg/mL (≈ 116 µM) | GI50 (SK-MEL-28 melanoma): 44.8 µg/mL | GI50 (M14 melanoma): 78.8 µg/mL | GI50 (UO-31 renal): 94.8 µg/mL | GI50 (UACC-62 melanoma): 94.8 µg/mL | GI50 (SK-OV-3 ovarian): 92.7 µg/mL | GI50 (MALME-3M melanoma): 42.9 µg/mL | GI50 (BT-549 breast): 63.5 µg/mL | GI50 (MOLT-4 leukemia): 62.9 µg/mL

COc1ccccc1Oc1nccc(-c2c(-c3ccc(F)cc3)ncn2C2CCNCC2)n1
GI50 (HL-60(TB) leukemia): > 23.3 µM | TGI (HL-60(TB) leukemia): > 25 µM | GI50 (SNB-75 CNS): > 16.6 µM | TGI (SNB-75 CNS): > 25 µM | GI50 (RPMI-8226 leukemia): > 19.3 µM | TGI (RPMI-8226 leukemia): > 25 µM | GI50 (K-562 leukemia): 8.32 µM | TGI (K-562 leukemia): > 25 µM | GI50 (HCC-2998 colon): 11.8 µM | TGI (HCC-2998 colon): > 25 µM | GI50 (SF-539 CNS): > 25 µM | TGI (SF-539 CNS): > 25 µM | GI50 (NCI-H522 lung): > 25 µM | TGI (NCI-H522 lung): > 25 µM | GI50 (MCF7 breast): 16 µM | TGI (MCF7 breast): > 25 µM | GI50 (SK-MEL-2 melanoma): > 25 µM | TGI (SK-MEL-2 melanoma): > 25 µM | GI50 (U251 CNS): > 24 µM | TGI (U251 CNS): > 25 µM | GI50 (LOX IMVI melanoma): 17.6 µM | TGI (LOX IMVI melanoma): > 25 µM | GI50 (OVCAR-3 ovarian): > 25 µM | TGI (OVCAR-3 ovarian): > 25 µM | GI50 (MDA-MB-435): > 24.1 µM | TGI (MDA-MB-435): > 25 µM | GI50 (COLO 205 colon): 7.37 µM | TGI (COLO 205 colon): > 19.9 µM | GI50 (SK-MEL-28 melanoma): > 24.1 µM | TGI (SK-MEL-28 melanoma): > 25 µM | GI50 (SF-295 CNS): 17.5 µM | TGI (SF-295 CNS): > 25 µM | GI50 (EKVX NSCLC): > 25 µM | TGI (EKVX NSCLC): > 25 µM | GI50 (MDA-MB-231 breast): 14.5 µM | TGI (MDA-MB-231 breast): > 25 µM | GI50 (IGROV1 ovarian): > 22.6 µM | TGI (IGROV1 ovarian): > 25 µM | GI50 (A498 renal): > 25 µM | TGI (A498 renal): > 25 µM | GI50 (PC-3 prostate): > 20.9 µM | TGI (PC-3 prostate): > 25 µM | GI50 (A549 NSCLC): > 25 µM | TGI (A549 NSCLC): > 25 µM | GI50 (SN12C renal): > 25 µM | TGI (SN12C renal): > 25 µM | GI50 (ACHN renal): 15.4 µM | TGI (ACHN renal): > 25 µM | GI50 (M14 melanoma): > 19.1 µM | TGI (M14 melanoma): > 25 µM | GI50 (NCI-H460 lung): > 25 µM | TGI (NCI-H460 lung): > 25 µM | GI50 (UO-31 renal): 6.86 µM | TGI (UO-31 renal): > 25 µM | GI50 (HS 578T breast): > 6.75 µM | TGI (HS 578T breast): > 23 µM | GI50 (UACC-62 melanoma): > 25 µM | TGI (UACC-62 melanoma): > 25 µM | GI50 (SK-OV-3 ovarian): > 25 µM | TGI (SK-OV-3 ovarian): > 25 µM | GI50 (DU-145 prostate): > 25 µM | TGI (DU-145 prostate): > 25 µM | GI50 (SNB-19 CNS): > 25 µM | TGI (SNB-19 CNS): > 25 µM | GI50 (CAKI-1 renal): > 23.2 µM | TGI (CAKI-1 renal): > 25 µM | GI50 (MALME-3M melanoma): > 25 µM | TGI (MALME-3M melanoma): > 25 µM | GI50 (786-0 renal): > 25 µM | TGI (786-0 renal): > 25 µM | GI50 (BT-549 breast): > 23.6 µM | TGI (BT-549 breast): > 25 µM | GI50 (NCI/ADR-RES ovarian): > 25 µM | TGI (NCI/ADR-RES ovarian): > 25 µM | GI50 (HT29 colon): 8.72 µM | TGI (HT29 colon): > 25 µM | GI50 (TK-10 renal): > 25 µM | TGI (TK-10 renal): > 25 µM | GI50 (T-47D breast): > 25 µM | TGI (T-47D breast): > 25 µM | GI50 (SW-620 colon): > 25 µM | TGI (SW-620 colon): > 25 µM | GI50 (KM12 colon): > 25 µM | TGI (KM12 colon): > 25 µM | GI50 (SF-268 CNS): > 25 µM | TGI (SF-268 CNS): > 25 µM | GI50 (SK-MEL-5 melanoma): 7.2 µM | TGI (SK-MEL-5 melanoma): > 25 µM | GI50 (HCT-15 colon): > 25 µM | TGI (HCT-15 colon): > 25 µM | GI50 (RXF 393 renal): 8.67 µM | TGI (RXF 393 renal): > 25 µM | GI50 (OVCAR-8 ovarian): > 25 µM | TGI (OVCAR-8 ovarian): > 25 µM | GI50 (HCT-116 colon): 19.6 µM | TGI (HCT-116 colon): > 25 µM | GI50 (OVCAR-5 ovarian): > 25 µM | TGI (OVCAR-5 ovarian): > 25 µM | GI50 (OVCAR-4 ovarian): > 25 µM | TGI (OVCAR-4 ovarian): > 25 µM | GI50 (MOLT-4 leukemia): > 16.3 µM | TGI (MOLT-4 leukemia): > 25 µM | GI50 (HOP-62 NSCLC): > 25 µM | TGI (HOP-62 NSCLC): > 25 µM
